Measured values from US10760052B2, “Method of inhibiting tau phosphorylation” (priority 2012, dated 2020).
Where two headings read alike, the source gives them in different places.

Target: T1, mu opiate receptor (MOR) (Rattus norvegicus, UniProt P33535)
T1 construct: from tissue; host or cells: striatum (membrane preparation)
Format: biochemical
Settings: for Concentration of FLNA-Binding Compound as Agonist 0.1 μM / Concentration of FLNA-Binding Compound as Agonist 1 μM / Concentration of FLNA-Binding Compound as Agonist 1 μM + BFNA: [35S]GTPγS binding to Gαo in striatal membranes; for Concentration of FLNA-Binding Compound as Agonist 0.1 μM: compound 0.1 μM; for Concentration of FLNA-Binding Compound as Agonist 1 μM: compound 1 μM; for Concentration of FLNA-Binding Compound as Agonist 1 μM + BFNA: compound 1 μM plus 1 μM β-funaltrexamine (MOR antagonist)
Procedure: To assess the mu opiate receptor (MOR) agonist activity of positive compounds from the FLNA screening, compounds were tested in a [^35S]GTPγS binding assay using striatal membranes. […] This assay measures a functional consequence of receptor occupancy at one of the earliest receptor-mediated events. The assay permits for traditional pharmacological parameters of potency, efficacy and antagonist affinity, with the advantage that agonist measures are not subjected to amplification or other modulation that may occur when analyzing parameters further downstream of the receptor.
Thus, striatal tissue was homogenized in 10 volumes of ice cold 25 mM HEPES buffer, pH 7.4, which contained 1 mM EGTA, 100 mM sucrose, 50 μg/ml leupeptin, 0.04 mM PMSF, 2 μg/ml soybean trypsin inhibitor and 0.2% 2-mercaptoethanol. The homogenates were centrifuged at 800×g for 5 minutes and the supernatants were centrifuged at 49,000×g for 20 minutes.
The resultant striatal membrane preparation (200 μg) was admixed and maintained (incubated) at 30° C. for 5 minutes in reaction buffer as above that additionally contained 1 mM MgCl2 and 0.5 nM [^35S]GTPγS (0.1 μCi/assay, PerkinElmer Life and Analytical Sciences) in a total volume of 250 μl and continued for 5 minutes in the absence or presence of 0.1-10 μM of an assayed compound of interest. The reaction was terminated by dilution with 750 μl of ice-cold reaction buffer that contained 20 mM MgCl2 and 1 mM EGTA and immediate centrifugation at 16,000×g for 5 minutes.
Normal rabbit serum (1 μl) was added to 1 ml of lysate and incubated at 25° C. for 30 minutes. Nonspecific immune complexes were removed by incubation with 25 μl of protein A/G-conjugated agarose beads at 25° C. for 30 minutes followed by centrifugation at 5,000×g at 4° C. for 5 minutes. The supernatant was divided and separately incubated at 25° C. for 30 minutes with antibodies raised against Gαo proteins (1:1,000 dilutions).
The immunocomplexes so formed were collected by incubation at 25° C. for 30 minutes with 40 μl of agarose-conjugated protein A/G beads and centrifugation at 5,000×g at 4° C. for 5 minutes. The pellet was washed and suspended in buffer containing 50 mM Tris-HCl, pH 8.0, and 1% NP-40. The radioactivity in the suspension was determined by liquid scintillation spectrometry.

[1] = 0.1 μM compound, striatal membranes, Series C-2
[2] = 1 μM compound + 1 μM β-FNA (selective MOR antagonist), Series C-2
[3] = 1 μM compound, striatal membranes, Series C-2

T1 sequence (P33535 whole entry): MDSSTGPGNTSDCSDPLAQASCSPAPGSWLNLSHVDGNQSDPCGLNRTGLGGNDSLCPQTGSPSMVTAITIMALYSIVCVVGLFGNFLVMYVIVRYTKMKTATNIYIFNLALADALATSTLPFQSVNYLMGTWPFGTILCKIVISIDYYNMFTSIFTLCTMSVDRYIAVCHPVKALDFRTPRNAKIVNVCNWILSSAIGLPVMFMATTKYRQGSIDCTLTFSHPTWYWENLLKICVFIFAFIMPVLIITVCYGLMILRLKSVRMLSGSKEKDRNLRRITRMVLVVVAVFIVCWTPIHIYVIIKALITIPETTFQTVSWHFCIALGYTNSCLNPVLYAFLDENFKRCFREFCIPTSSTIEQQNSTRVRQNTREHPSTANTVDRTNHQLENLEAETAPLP

SMILES | % DAMGO (0.1 μM) | % DAMGO (1 μM) | % DAMGO + BFNA | Concentration of FLNA-Binding Compound as Agonist 0.1 μM | Concentration of FLNA-Binding Compound as Agonist 1 μM | Concentration of FLNA-Binding Compound as Agonist 1 μM + BFNA | [35S]GTPγS binding, FLNA-Binding Compound as Agonist at 0.1 μM [1] | [35S]GTPγS binding, FLNA-Binding Compound as Agonist at 1 μM + BFNA [2] | [35S]GTPγS binding, FLNA-Binding Compound as Agonist at 1 μM [3] | [35S]GTPγS binding, FLNA-Binding Compound as Agonist at 0.1 μM | [35S]GTPγS binding, FLNA-Binding Compound as Agonist at 1 μM | [35S]GTPγS binding, FLNA-Binding Compound as Agonist at 1 μM + BFNA
COc1c2c(cc3c1C(CC(=O)c1ccncc1)[N+](C)(C)CC3)OCO2 (stereo not drawn) [Compound B0005] | 50.5% | 42.6% | 68.6% | 89.2% | 110.4% | 45.1% | – | – | – | – | – | –
O=S(=O)(c1ccc2ccccc2c1)N1CCC2(CC1)OCCN2S(=O)(=O)c1ccc2ccccc2c1 [Compound C0140M] | 85.8% | 106.5% | 211.2% | 126.1% | 215.4% | 83.0% | – | – | – | – | – | –
O=S(=O)(c1cccs1)N1CCC2(CC1)OCCN2S(=O)(=O)c1cccs1 [Compound C0141M] | 109.9% | 105.8% | 121.9% | 161.5% | 213.9% | 47.9% | – | – | – | – | – | –
O=S(=O)(c1ccc(Br)cc1Br)N1CCC2(CC1)OCCN2S(=O)(=O)c1ccc(Br)cc1Br [Compound C0070] | 96.2% | 95.9% | 331.0% | 165.6% | 210.8% | 114.2% | – | – | – | – | – | –
O=[N+]([O-])c1ccc(S(=O)(=O)N2CCC3(CC2)NCCS3)cc1 [Compound C0044] | 102.8% | 128.0% | 356.0% | – | – | – | 173.7% | 59.1% | 280.1% | – | – | –
COc1ccc(C(=O)CC2c3c(cc4c(c3OC)OCO4)CC[N+]2(C)C)cc1OC (stereo not drawn) [Compound B0026] | 88.8% | 87.4% | 55.3% | 152.0% | 233.3% | 28.8% | – | – | – | – | – | –
COCOc1ccc(C(=O)CC2c3c(cc4c(c3OC)OCO4)CC[N+]2(C)C)cc1C (stereo not drawn) [Compound B0041] | 39.3% | 47.2% | 128.5% | 61.6% | 109.3% | 41.9% | – | – | – | – | – | –
CC(=O)c1ccc(S(=O)(=O)N2C(Cc3c[nH]cn3)C(=O)NC23CCNCC3)cc1 (stereo not drawn) [Compound C0119M] | 71.9% | 83.0% | 89.3% | – | – | – | – | – | – | 105.7% | 167.8% | 35.1%
CC1CCC(C(C)C)C(OCC(O)CN2CCCCC2C)C1 (stereo not drawn) [Compound A0007] | 68.3% | 96.4% | 152.5% | 102.0% | 221.9% | 40.4% | – | – | – | – | – | –
CS(=O)(=O)c1ccc(S(=O)(=O)N2CCC3(CC2)OCCN3S(=O)(=O)c2ccc(S(C)(=O)=O)cc2)cc1 [Compound C0009] | 85.1% | 92.6% | 41.2% | 146.3% | 256.2% | 26.4% | – | – | – | – | – | –
CCc1ccc(S(=O)(=O)N2CCOC23CCN(CC2CC2)CC3)cc1 [Compound C0135M] | 85.3% | 124.9% | 233.6% | – | – | – | – | – | – | 161.3% | 310.1% | 113.3%
O=S(=O)(c1ccc(-c2ccccc2)cc1)N1CCC2(CC1)OCCN2S(=O)(=O)c1ccc(-c2ccccc2)cc1 [Compound C0010] | 80.7% | 114.9% | 135.0% | 136.5% | 307.0% | 89.1% | – | – | – | – | – | –
O=S(=O)(c1ccccc1Oc1ccccc1)N1CCC2(CC1)NCCO2 [Compound C0149M-2] | 122.0% | 124.8% | 102.3% | – | – | – | 209.8% | 93.4% | 406.7% | – | – | –
COc1ccc(CCCCC2c3c(cc4c(c3OC)OCO4)CC[N+]2(C)C)cc1 (stereo not drawn) [Compound B0056] | 98.9% | 113.6% | 158.9% | 174.7% | 288.8% | 41.8% | – | – | – | – | – | –
CN1CCC2(CC1)OCCN2S(=O)(=O)c1ccc(S(C)(=O)=O)cc1 [Compound C0106M] | 102.5% | 108.3% | 246.7% | – | – | – | 171.8% | 117.2% | 240.7% | – | – | –
COc1cc(F)ccc1C(=O)CC1c2c(cc3c(c2OC)OCO3)CC[N+]1(C)C (stereo not drawn) [Compound B0007] | 95.3% | 86.1% | 98.2% | 168.3% | 223.3% | 64.5% | – | – | – | – | – | –
COc1ccc(C(=O)N2CCC3(CC2)OCCN3C(=O)c2ccc(OC)cc2)cc1 [Compound C0017] | 87.1% | 109.7% | 143.2% | 153.8% | 284.5% | 94.1% | – | – | – | – | – | –
Cc1ccc(C(C)C)c(OCC(O)CN2CC(C)OC(C)C2)c1 (stereo not drawn) [Compound A0028] | 81.3% | 73.8% | 443.7% | 143.6% | 187.7% | 116.7% | – | – | – | – | – | –
CC1CCC(C(C)C)C(OCC(O)CN2CCN(CCc3ccccc3)CC2)C1 (stereo not drawn) [Compound A0020] | 100.9% | 88.7% | 194.2% | 168.6% | 217.4% | 67.4% | – | – | – | – | – | –
OC(COc1ccc(Br)c(F)c1)CN1CCc2ccccc2C1 (stereo not drawn) [Compound A0057] | 79.6% | 83.3% | 112.3% | 124.2% | 192.1% | 44.8% | – | – | – | – | – | –
COc1ccc(S(=O)(=O)N2CCOC23CCN(S(=O)(=O)c2ccc(C(C)=O)cc2)CC3)cc1 [Compound C0047] | 98.1% | 88.5% | 182.0% | 142.2% | 206.1% | 80.1% | – | – | – | – | – | –
COc1ccc(S(=O)(=O)N2CCC3(NCCO3)C3CCCCC32)cc1 (stereo not drawn) [Compound C0144M-2] | 108.3% | 90.8% | 137.9% | – | – | – | 186.3% | 125.9% | 295.9% | – | – | –
COc1ccc(CCC(=O)CC2c3c(cc4c(c3OC)OCO4)CC[N+]2(C)C)cc1OC (stereo not drawn) [Compound B0042] | 39.6% | 42.3% | 163.9% | 69.9% | 107.5% | 43.1% | – | – | – | – | – | –
